The text below walks through data of patent US4153688A, “Trifluoromethylated oligopeptides” (Delalande S.A., priority 1977, dated 1979).

Where a name gives a salt, the structure may show the parent alone. Read-outs that look alike come from different tables or passages of the source. Square brackets hold non-standard residues; d marks the D form. Peptide text beside a SMILES is read from it. * marks the point of attachment. pNA = O=[N+]([O-])c1ccc(N*)cc1; 4Abz = Nc1ccc(C(=O)O)cc1; Tfa = O=C(C(F)(F)F)*; NHPh = c1ccc(N*)cc1

In data set [1] the target is T1, porcine pancreatic elastase (Sus scrofa, UniProt P00772). As to the kind of experiment: Inhibition constant KI (Dixon method) on pancreatic elastase, hydrolysis of succinyl-tri-L-alanine-paranitroanilide. It counts as biochemical. As to conditions: 25° C., TRIS 0.2 M buffer, pH 8; absence of any organic solvent; read-out: K T^ (a) pancreatic. An excerpt:
(§1) This latter was purified according to the Travis method (Baugh, R. J. and Travis, J. (1976), Biochemistry, 15, 4, 836). The method of study used is the conventional method of Dixon (Dixon, M., (1953), Biochemical Journal, 55, 1970) for measuring the inhibition constants KI of the compounds of the invention with regard to the hydrolysis reactions of the succinyl-tri-L-alanine-paranitroanilide catalysed by the two above elastases (Bieth J., Spiess B. and Wermuth C. G. (1974) Biochemical Medicine, 11, 350). In certain cases (leucocytal elastase) the inhibitory power of the compounds studied was measured by means of the I50 concentration of these compounds inducing 50% inhibition of the hydrolysis of the succinyl-tri-alanine-paranitroanilide at a 10^-3 M concentration catalysed by the enzyme. […] All the measurements were made at 25° C. in a 0.2 Molar buffer solution of tri-hydroxymethyl-aminomethane at pH 8.
(§2) Table E below lists the results obtained for the compounds of formula (I) as well as the reference compounds (A), acetyl-L-prolyl-L-alanyl-L-prolyl-L-alaninal, for the pancreatic elastase (Thompson, R. C., Biochemistry (1973), 17, 1, 47) and (B), oleic acid, for the leucocytal elastase (Ashe, B. M. and Zimmerman, M. (1977), Biochem. Biophys. Res. Comm., 75, 194).

For data set [2], the target named is T2, leucocytal elastase (Homo sapiens, UniProt P08246).
T2 construct: This latter was purified according to the Travis method; from tissue
T2 sequence (P08246 30-267): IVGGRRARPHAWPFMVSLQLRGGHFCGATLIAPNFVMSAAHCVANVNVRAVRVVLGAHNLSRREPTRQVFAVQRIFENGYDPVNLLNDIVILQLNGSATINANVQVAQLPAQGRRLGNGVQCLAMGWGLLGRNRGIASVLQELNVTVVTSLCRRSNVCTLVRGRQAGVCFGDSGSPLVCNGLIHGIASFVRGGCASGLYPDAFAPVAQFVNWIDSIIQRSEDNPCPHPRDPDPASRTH
As to the kind of experiment: I50 on leucocytal elastase, hydrolysis of succinyl-tri-alanine-paranitroanilide at 10^-3 M. It counts as biochemical. As to conditions: 25° C., TRIS 0.2 M buffer, pH 8; substrate 10^-3 M; in the presence of 50 % dimethylformamide (footnote); read-out: T 50^ (b) leucocytal.
Excerpt: as §1

Data set [3] concerns the target T2, leucocytal elastase. As to the kind of experiment: Inhibition constant KI (Dixon method) on leucocytal elastase, hydrolysis of succinyl-tri-L-alanine-paranitroanilide. The data set is classed as biochemical. The conditions noted are these: 25° C., TRIS 0.2 M buffer, pH 8; absence of any organic solvent; read-out: K T^ (a) leucocytal.
Excerpt: as §1, §2

A further data set relates to mice. As to the kind of experiment: Intravenous toxicity on mice. The conditions noted are these: intravenously, 20, 40 and 80 mg/kg, solution in physiological serum containing 10% DMF. The data set is classed as in vivo. How it is done:
Furthermore, the toxicity of the compounds of the invention were studied intravenously on mice. More exactly, these compounds were tested in the form of a solution in physiological serum containing 10% DMF.
It is to be noted that it was not possible to use doses higher than those indicated above, because of the solubility limit of compound 3.

Data set [4] deals with T1, porcine pancreatic elastase. The conditions noted are these: reference compound, Thompson, Biochemistry (1973); read-out: K T^ (a) pancreatic; cited from earlier work.
Data set [5] deals with T2, leucocytal elastase. As to conditions: reference compound, Ashe and Zimmerman (1977); read-out: K T^ (a) leucocytal; cited from earlier work.

T1 sequence (P00772 27-266): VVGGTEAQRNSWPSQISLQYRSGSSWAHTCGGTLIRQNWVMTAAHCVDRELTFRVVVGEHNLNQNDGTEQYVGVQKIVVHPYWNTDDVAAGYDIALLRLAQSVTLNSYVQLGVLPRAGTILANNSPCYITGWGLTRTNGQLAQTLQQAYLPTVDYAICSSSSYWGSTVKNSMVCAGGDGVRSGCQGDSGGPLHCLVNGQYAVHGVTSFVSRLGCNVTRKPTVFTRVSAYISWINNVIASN

Regarding `C[C@H](NC(=O)[C@H](C)NC(=O)C(F)(F)F)C(=O)Nc1ccc(C(F)(F)F)cc1` [compound 5], in data set [1], the Ki stood at 90 nM. Moreover, the IC50 on leucocytal elastase [2] stood at 56000 nM.

On to `C[C@H](NC(=O)[C@H](CCCCN)NC(=O)C(F)(F)F)C(=O)Nc1ccccc1` [compound 11] (Tfa-Lys-Ala-NHPh), for which the Ki in data set [1] worked out at 40 nM; on leucocytal elastase [3], 44000 nM. The IC50 at leucocytal elastase [2] was found to be 150000 nM.

Consider `COc1ccc(NC(=O)[C@H](C)NC(=O)[C@H](C)NC(=O)C(F)(F)F)cc1` [compound 7], for which the Ki in data set [1] was 290 nM. At leucocytal elastase [2], the IC50 is 30000 nM.

For `C[C@H](NC(=O)[C@H](C)NC(=O)C(F)(F)F)C(=O)Nc1ccc(C#N)cc1` [compound 9], the Ki in data set [1] is 110 nM. The IC50 at leucocytal elastase [2] was found to be 100000 nM.

Consider `C[C@H](NC(=O)[C@H](C)NC(=O)C(F)(F)F)C(=O)Nc1cccc(C(F)(F)F)c1` [compound 6], for which, in data set [1], the Ki was determined as 800 nM. In addition, the IC50 at leucocytal elastase [2] is 120000 nM.

For `Cc1ccc(NC(=O)[C@H](C)NC(=O)[C@H](CCCCN)NC(=O)C(F)(F)F)cc1` [compound 13], the Ki in data set [1] was determined as 30 nM; on leucocytal elastase [3], 14000 nM. Moreover, on leucocytal elastase [2], the IC50 is 50000 nM.

For `CC(NC(=O)C(F)(F)F)C(=O)NC(C(=O)Nc1ccccc1)C(F)(F)F` (mixture of isomers) [compound 17], in data set [1], the Ki was 270 nM. At leucocytal elastase [2], the IC50 worked out at 400000 nM.

For the compound `C[C@H](NC(=O)[C@H](CCCCN)NC(=O)C(F)(F)F)C(=O)Nc1ccc(C(F)(F)F)cc1` [compound 12], the Ki turned out to be 25 nM in data set [1] and 3000 nM at leucocytal elastase [3]. Further, the IC50 at leucocytal elastase [2] turned out to be 35000 nM.

Regarding `C[C@H](NC(=O)[C@H](C)NC(=O)C(F)(F)F)C(=O)Nc1ccc([N+](=O)[O-])cc1` [Code number 3, N-trifluoroacetyl-L-alanyl-L-alanyl-p-nitroanilide] (Tfa-Ala-Ala-pNA), the mortality result in the data set with mice is on record as “no case of mortality was observed”. The Ki in data set [1] worked out at 120 nM. At leucocytal elastase [2], the IC50 was 78000 nM.

On to `CC(=O)N1CCC[C@H]1C(=O)N[C@@H](C)C(=O)N1CCC[C@H]1C(=O)N[C@@H](C)C=O` [A, acetyl-L-prolyl-L-alanyl-L-prolyl-L-alaninal] (Ac-PAPA-aldehyde), for which the Ki in data set [4] is 800 nM.

For the compound `C[C@H](NC(=O)[C@H](C)NC(=O)C(F)(F)F)C(=O)Nc1ccc(Cl)cc1` [compound 2], the Ki in data set [1] is 110 nM. The IC50 at leucocytal elastase [2] was 100000 nM.

As for `CCCCCCCC/C=C\CCCCCCCC(=O)O` [B, oleic acid], at leucocytal elastase [5], the Ki is 9000 nM.

On to `C[C@H](NC(=O)[C@H](C)NC(=O)C(F)(F)F)C(=O)Nc1ccc(C(=O)O)cc1` [compound 10] (Tfa-Ala-Ala-[4Abz]-OH), for which the Ki in data set [1] is 200 nM. Also, the IC50 at leucocytal elastase [2] was 470000 nM.

Regarding `C[C@H](NC(=O)[C@H](C)NC(=O)C(F)(F)F)C(=O)Nc1ccccc1` [compound 1] (Tfa-Ala-Ala-NHPh), the Ki in data set [1] came to 250 nM. Also, the IC50 on leucocytal elastase [2] worked out at 250000 nM.

`C[C@H](NC(=O)C(F)(F)F)C(=O)N[C@@H](CCCCN)C(=O)Nc1ccc(C(F)(F)F)cc1` [compound 19]: the Ki in data set [1] came to 400 nM. Moreover, the IC50 at leucocytal elastase [2] worked out at 150000 nM.

With `C[C@H](NC(=O)[C@H](C)NC(=O)C(F)(F)F)C(=O)Nc1cccc([N+](=O)[O-])c1` [compound 4], the Ki in data set [1] was found to be 380 nM. For the same compound, the IC50 on leucocytal elastase [2] worked out at 150000 nM.

`CC(C)c1ccc(NC(=O)[C@H](C)NC(=O)[C@H](C)NC(=O)C(F)(F)F)cc1` [compound 8]: the Ki in data set [1] is 550 nM. For the same compound, the IC50 at leucocytal elastase [2] is 12000 nM.

Regarding `CC(C)c1ccc(NC(=O)[C@H](C)NC(=O)[C@H](CCCCN)NC(=O)C(F)(F)F)cc1` [compound 14], the Ki in data set [1] is 50 nM; on leucocytal elastase [3], 700 nM. At leucocytal elastase [2], the IC50 turned out to be 5700 nM.

On to `CC(=O)c1ccc(NC(=O)[C@H](C)NC(=O)[C@H](CCCCN)NC(=O)C(F)(F)F)cc1` [compound 16], for which the Ki in data set [1] is 32 nM; on leucocytal elastase [3] it was 2500 nM. On leucocytal elastase [2], the IC50 stood at 9000 nM.
